Assay [1] has as its system HeLa. The experiment in a line: Cytotoxicity against human HeLa cells in lag-phase after 48 hrs by MTT assay. The assay is classed as functional, cell-based. For orientation: Formazan colour is commonly taken as a measure of viable cells.
Assay [2] concerns HEp-2. The experiment in a line: Cytotoxicity against human Hep2 cells in log-phase after 48 hrs by MTT assay. In kind it is functional, cell-based. To be noted: HEp-2, 48 h.
The test system of assay [3] is HeLa. The experiment in a line: Cytotoxicity against human HeLa cells in log-phase after 48 hrs by MTT assay. The assay is classed as functional, cell-based.
Assay [4] concerns Vero. Nature of the assay: Cytotoxicity against african green monkey Vero cells in lag-phase after 48 hrs by MTT assay. In kind it is cell-based. To be noted: Chlorocebus sabaeus.
Assay [5] has as its system HEp-2. The experiment in a line: Cytotoxicity against human Hep2 cells in lag-phase after 48 hrs by MTT assay. In kind it is functional, cell-based. To be noted: HEp-2, 48 h.
The subject of assay [6] is Vero. The experiment in a line: Cytotoxicity against african green monkey Vero cells in log-phase after 48 hrs by MTT assay. The assay is classed as cell-based. To be noted: Chlorocebus sabaeus.

Starred links: 1 amine or outer side, 2 acyl side, 3 side chain; linkers in the order of their positions; H or OH if unused. Positions of bridges follow the written chain, without caps; N, C: chain ends. Non-standard residues stand in square brackets, D forms with d. Residues, ends and D or L forms follow the SMILES beside them. Chains are numbered I, II in the order given. Actinocin(1to9) = Cc1c2oc3c(C)ccc(C(=O)[*:2])c3nc-2c(C(=O)[*:1])c(N)c1=O; NMeV = CN[C@H](C(=O)O)C(C)C; Sar = CNCC(=O)O

The text below walks through data of ChEMBL document CHEMBL1158836, “Cytotoxic sesquiterpenes from Aplysia dactylomela” (J Nat Prod, 2005).

With `CC(=O)O[C@@H]1C[C@@H](Br)C(C)(C)O[C@]1(C)[C@H]1CC[C@](C)(Cl)[C@@H](Br)C1`, the IC50 in the assay on HeLa [1] was greater than 42 µM; in the assay on HEp-2 [2], greater than 42 µM; in the assay with HeLa [3], greater than 42 µM; in the assay with Vero [4], 31.9 µM; in the assay on HEp-2 [5], greater than 42 µM; in the assay with Vero [6] it was 33.6 µM.
On to `C=C1C[C@H](OC(C)=O)[C@H](Br)C(C)(C)[C@@]12CCC(C)=C(Cl)C2` [ACETYLELATOL], for which the half-maximal inhibitory concentration (IC50) in the assay with HeLa [1] was 50.3 µM; in the assay with HEp-2 [2], 22.4 µM; in the assay with HeLa [3], 13.7 µM; in the assay on Vero [4] it was greater than 53 µM; in the assay on HEp-2 [5] it was 28 µM; with Vero [6], 44.6 µM.
In the case of `C=C1C[C@H](OC(C)=O)[C@H](Br)C(C)(C)[C@]12CC=C(C)CC2` [ACETYLDESCHLOROELATOL], the half-maximal inhibitory concentration (IC50) with HeLa [1], in the assay on HEp-2 [2], in the assay with HeLa [3], with Vero [4], in the assay with HEp-2 [5] and with Vero [6] was greater than 58 µM each time.
For the molecule `C=C1C[C@H](O)[C@H](Br)C(C)(C)[C@]12CC=C(C)CC2` [DESCHLOROELATOL], the half-maximal inhibitory concentration (IC50) in the assay on HeLa [1], in the assay on HEp-2 [2], in the assay on HeLa [3], with Vero [4], with HEp-2 [5] and in the assay on Vero [6] was greater than 67 µM throughout.
As to `C=C1C[C@H](O)[C@H](Br)C(C)(C)[C@@]12CCC(C)=C(Cl)C2` [ELATOL], the IC50 with HeLa [1] came out at 4.1 µM; in the assay with HEp-2 [2], 2 µM; in the assay on HeLa [3] it was 1.3 µM; with Vero [4] it was 2.3 µM; with HEp-2 [5] it was 2.4 µM; in the assay on Vero [6], 25 µM.
Take `CC1(C)O[C@](C)([C@H]2CC[C@](C)(Cl)[C@@H](Br)C2)[C@H](O)C[C@H]1Br` [CAESPITOL]: the IC50 in the assay on HeLa [1] is 26.9 µM; in the assay on HEp-2 [2], greater than 46 µM; in the assay with HeLa [3], 30.6 µM; in the assay with Vero [4] it was 25.5 µM; in the assay with HEp-2 [5], greater than 46 µM; in the assay on Vero [6], 25.8 µM.
On to `Cc1c2oc3c(C)ccc(C(=O)N[C@@H]4C(=O)N[C@H](C(C)C)C(=O)N5CCC[C@H]5C(=O)N(C)CC(=O)N(C)[C@@H](C(C)C)C(=O)O[C@@H]4C)c3nc-2c(C(=O)N[C@@H]2C(=O)N[C@H](C(C)C)C(=O)N3CCC[C@H]3C(=O)N(C)CC(=O)N(C)[C@@H](C(C)C)C(=O)O[C@@H]2C)c(N)c1=O` [DACTINOMYCIN] (I: T[dV]P[Sar][NMeV] / II: T[dV]P[Sar][NMeV]; ester I:1-I:C, II:1-II:C; linker I:N-II:N via Actinocin(1to9)), for which the IC50 with HeLa [1] turned out to be 0.011 µM; with HEp-2 [2] it was 0.006 µM; with HeLa [3], 0.001 µM; in the assay with Vero [4], 0.071 µM; in the assay with HEp-2 [5], 0.191 µM; with Vero [6] it was 0.001 µM.

One may read the IC50 as the concentration at which inhibition is half-maximal.
